Measured values from patent US8397806B2, “Method for pre-treatment of subterranean sites adjacent to water injection wells” (E.I. du Pont de Nemours and Company, priority 2010, dated 2013).

Experiments:
[1] = Example 2: 1N HCl titration of amine-coated core sand (38 mg amine on 10.18 gr sand) in 100 ml brine #2, amine in solution by GC; assay type: physicochemical
Procedure: Helium was used as the carrier gas.
38 milligrams (mg) of N N-Dimethyl-1-Dodecanamine (hereafter referred to as “the amine”) was added to 10.210 gr of Pentane. This solution was added to 10.1845 gr of specific sand layers (Oa and Ob) obtained from the Schrader Bluff formation of the Milne Point Unit of the Alaskan North slope. The oil content of the sand was first removed using a mixture of methanol and toluene (50/50, volume/volume) as solvent washes. The solvent mixture was subsequently evaporated off the core sand to produce clean, dry, flowable core sand. This sand was mixed with the amine and pentane solution to produce a slurry. This slurry was thoroughly mixed and the pentane was evaporated off leaving the amine on the sand (hereafter referred to as sand/amine mixture). 100 ml of brine #2 (Table 3) was added to the sand/amine mixture to create the sand/amine/brine mixture. […] The fact that the amine was not detected underlined its strong binding to the sand particles. […] The data underlines the remarkable efficiency of an acid at ionizing and removing the amine from the sand.

[2] = Example 5: 10% acetic acid titration of amine-coated core sand (30.85 gr sand/amine mixture) in 100 ml brine #2, amine in solution by GC
Procedure: (§1) Concentration of amines, in media and water, were analyzed by gas chromatography (GC). An Agilent Model 5890 (Agilent, Wilmington, Del.), GC equipped with a […] and a split/splitless injector, a DB-FFAP column (30 meter length×0.32 millimeter (mm) […]×0.25 micrometer particle size). […] The system was calibrated using a sample of N,N-Dimethyl-1-Dodecaneamine (Aldrich). Helium was used as the carrier gas. A temperature gradient of 50 degrees Celsius (° C.) to 250° C. at 30° C. increase per minute (min) was used.
The same procedure outlined in Example 4 was repeated here to produce the sand/amine mixture. 30.85 grams (gr) of the sand/amine mixture was added to 100 ml of brine #2 (Table 3) to create the sand/amine/brine mixture.

[3] = Example 4: 10% nitric acid titration of amine-coated core sand (29.065 gr sand/amine mixture) in 100 ml brine #2, amine in solution by GC
Procedure: as §1
The procedure outlined in Example 2 was used to produce the sand/amine mixture except that 519 mg of the amine, 10 gr of Pentane. and 60.062 gr of sand from the Oa and Ob layers were used. 29.065 gr of this sand/amine mixture was added to 100 ml of brine #2 (Table 3) to create the sand/amine/brine mixture. […] The concentration of the amine in the water should have been about […] if all the amine was dissolved in brine #2. […] 0.1 ml of 10 weight percent (wt %) nitric acid in water was added to this solution, and the pH and the amine concentration were measured again.

With CCCCCCCCCCCCN(C)C [N-N-dimethyl-1-dodeanamine, N N-Dimethyl-1-Dodecanamine] the “First derivative (change in amine/change in pH)” value ([1]; sample Amine titrate 1, pH 7.37) was 63.75, the “N-N-dimethyl-1-dodeanamine (ppm) in slim tube effluent” value (from here on “N-N-dimethyl-1-dodeanamine (ppm)”) ([1]; sample Amine titrate 1, pH 7.37, +0.10 ml 1N HCl) was 46.41 ppm and the “First derivative (change in amine/change in pH)” value ([1]; sample Amine titrate 2, pH 7.21) was 63.42. For the same compound, the “N-N-dimethyl-1-dodeanamine (ppm)” value ([1]; sample Amine titrate 2, pH 7.21, +0.10 ml 1N HCl) was 59.29 ppm, the “First derivative (change in amine/change in pH)” value ([1]; sample Amine titrate 3, pH 7.03) was 24.34 and the “N-N-dimethyl-1-dodeanamine (ppm)” value ([1]; sample Amine titrate 3, pH 7.03, +0.10 ml 1N HCl) was 67.97 ppm. For the same compound, the “First derivative (change in amine/change in pH)” value ([1]; sample Amine titrate 4, pH 6.59) was 160.35, the “N-N-dimethyl-1-dodeanamine (ppm)” value ([1]; sample Amine titrate 4, pH 6.59, +0.10 ml 1N HCl) was 74.38 ppm and the “First derivative (change in amine/change in pH)” value ([1]; sample Amine titrate 5, pH 6.13) was 412.18. The “N-N-dimethyl-1-dodeanamine (ppm)” value ([1]; sample Amine titrate 5, pH 6.13, +0.10 ml 1N HCl) was 212.28 ppm, the “First derivative (change in amine/change in pH)” value ([1]; sample Amine titrate 6, pH 6.07) was 679.86 and the “N-N-dimethyl-1-dodeanamine (ppm)” value ([1]; sample Amine titrate 6, pH 6.07, +0.10 ml 1N HCl) was 288.72 ppm. For the same compound, the “First derivative (change in amine/change in pH)” value ([1]; sample Amine titrate 7, pH 6.04) was −148.78, the “N-N-dimethyl-1-dodeanamine (ppm)” value ([1]; sample Amine titrate 7, pH 6.04, +0.05 ml 1N HCl) was 273.47 ppm and the “First derivative (change in amine/change in pH)” value ([1]; sample Amine titrate 8, pH 5.98) was 119.35. For the same compound, the “N-N-dimethyl-1-dodeanamine (ppm)” value ([1]; sample Amine titrate 8, pH 5.98, +0.05 ml 1N HCl) was 275.33 ppm, the “First derivative (change in amine/change in pH)” value ([1]; sample Amine titrate 9, pH 5.79) was 65.90 and the “N-N-dimethyl-1-dodeanamine (ppm)” value ([1]; sample Amine titrate 9, pH 5.79, +0.05 ml 1N HCl) was 303.31 ppm. For the same compound, the “First derivative (change in amine/change in pH)” value ([1]; sample Amine titrate 10, pH 5.39) was 15.17, the “N-N-dimethyl-1-dodeanamine (ppm)” value ([1]; sample Amine titrate 10, pH 5.39, +0.05 ml 1N HCl) was 314.21 ppm and the “First derivative (change in amine/change in pH)” value ([1]; sample Amine titrate 11, pH 4.13) was 3.24. The “N-N-dimethyl-1-dodeanamine (ppm)” value ([1]; sample Amine titrate 11, pH 4.13, +0.05 ml 1N HCl) was 328.48 ppm, the “First derivative (change in amine/change in pH)” value ([1]; sample Amine titrate 12, pH 3.19) was 11.80 and the “N-N-dimethyl-1-dodeanamine (ppm)” value ([1]; sample Amine titrate 12, pH 3.19, +0.05 ml 1N HCl) was 321.33 ppm. The “First derivative (change in amine/change in pH)” value ([1]; sample Amine titrate 13, pH 2.91) was 47.42, the “N-N-dimethyl-1-dodeanamine (ppm)” value ([1]; sample Amine titrate 13, pH 2.91, +0.05 ml 1N HCl) was 342.88 ppm and the “First derivative (change in amine/change in pH)” value ([1]; sample Amine titrate 14, pH 2.74) was −6.52. The “N-N-dimethyl-1-dodeanamine (ppm)” value ([1]; sample Amine titrate 14, pH 2.74, +0.05 ml 1N HCl) was 342.67 ppm, the “First derivative (change in amine/change in pH)” value ([1]; sample Amine titrate 15, pH 2.61) was 79.86 and the “N-N-dimethyl-1-dodeanamine (ppm)” value ([1]; sample Amine titrate 15, pH 2.61, +0.05 ml 1N HCl) was 340.92 ppm. For the same compound, the “First derivative (change in amine/change in pH)” value ([1]; sample Amine titrate 16, pH 2.41) was 80.22, the “N-N-dimethyl-1-dodeanamine (ppm)” value ([1]; sample Amine titrate 16, pH 2.41, +0.10 ml 1N HCl) was 369.02 ppm and the “First derivative (change in amine/change in pH)” value ([1]; sample Amine titrate 17, pH 2.27) was 2.25. For the same compound, the “N-N-dimethyl-1-dodeanamine (ppm)” value ([1]; sample Amine titrate 17, pH 2.27, +0.10 ml 1N HCl) was 368.19 ppm, the “First derivative (change in amine/change in pH)” value ([1]; sample Amine titrate 18, pH 2.18) was 7.51 and the “N-N-dimethyl-1-dodeanamine (ppm)” value ([1]; sample Amine titrate 18, pH 2.18, +0.10 ml 1N HCl) was 369.54 ppm. The “First derivative (change in amine/change in pH)” value ([1]; sample Amine titrate 19, pH 2.10) was 0.12, the “N-N-dimethyl-1-dodeanamine (ppm)” value ([1]; sample Amine titrate 19, pH 2.10, +0.10 ml 1N HCl) was 369.47 ppm and the “N-N-dimethyl-1-dodeanamine (ppm)” value ([1]; sample Amine titrate 20, pH 2.04, +0.10 ml 1N HCl) was 369.56 ppm. The “N-N-dimethyl-1-dodeanamine (ppm)” value ([1]; sample Amine titrate st, pH 8.14, 0.00 ml 1N HCl) was 0.00 ppm, the “N-N-dimethyl-1-dodeanamine (ppm)” value ([1]; sample Amine titrate st, pH 8.14, 0.00 ml 1N HCl, listed as N N-Dimethyl-1-Dodecanamine) was < 1 ppm and the “pH at which complete ionization and solubilization of the amine in the water was observed” value ([1]; titration with 1N HCl) was < 6.0. For the same compound, the “ppm N-N-dimethyl-1-dodeanamine” value ([2]; sample 1, pH 8.01, +0.1 ml 10% acetic acid) was 63 ppm, the “ppm N-N-dimethyl-1-dodeanamine” value ([2]; sample 2, pH 7.41, +0.1 ml 10% acetic acid) was 107 ppm and the “ppm N-N-dimethyl-1-dodeanamine” value ([2]; sample 3, pH 7.4, +0.1 ml 10% acetic acid) was 215 ppm. The “ppm N-N-dimethyl-1-dodeanamine” value ([2]; sample 4, pH 7.37, +0.1 ml 10% acetic acid) was 497 ppm, the “ppm N-N-dimethyl-1-dodeanamine” value ([2]; sample 5, pH 7.23, +0.1 ml 10% acetic acid) was 512 ppm and the “ppm N-N-dimethyl-1-dodeanamine” value ([2]; sample 6, pH 7.12, +0.1 ml 10% acetic acid) was 969 ppm. For the same compound, the “ppm N-N-dimethyl-1-dodeanamine” value ([2]; sample 7, pH 6.98, +0.1 ml 10% acetic acid) was 1239 ppm, the “ppm N-N-dimethyl-1-dodeanamine” value ([2]; sample 8, pH 6.89, +0.1 ml 10% acetic acid) was 1453 ppm and the “ppm N-N-dimethyl-1-dodeanamine” value ([2]; sample 9, pH 6.75, +0.1 ml 10% acetic acid) was 1583 ppm. For the same compound, the “ppm N-N-dimethyl-1-dodeanamine” value ([2]; sample 10, pH 6.56, +0.1 ml 10% acetic acid) was 1579 ppm, the “ppm N-N-dimethyl-1-dodeanamine” value ([2]; sample 11, pH 6.39, +0.1 ml 10% acetic acid) was 1616 ppm and the “ppm N-N-dimethyl-1-dodeanamine” value ([2]; sample 12, pH 6.4, +0.1 ml 10% acetic acid) was 1759 ppm. The “ppm N-N-dimethyl-1-dodeanamine” value ([2]; sample 13, pH 6.02, +0.2 ml 10% acetic acid) was 1736 ppm, the “ppm N-N-dimethyl-1-dodeanamine” value ([2]; sample 14, pH 5.4, +0.2 ml 10% acetic acid) was 1718 ppm and the “ppm N-N-dimethyl-1-dodeanamine” value ([2]; sample 15, pH 5.04, +0.2 ml 10% acetic acid) was 1743 ppm. For the same compound, the “ppm N-N-dimethyl-1-dodeanamine” value ([2]; sample 16, pH 4.86, +0.2 ml 10% acetic acid) was 1931 ppm, the “ppm N-N-dimethyl-1-dodeanamine” value ([2]; sample 17, pH 4.73, +0.2 ml 10% acetic acid) was 1995 ppm and the “ppm N-N-dimethyl-1-dodeanamine” value ([2]; sample 18, pH 4.61, +0.2 ml 10% acetic acid) was 1913 ppm. For the same compound, the “ppm N-N-dimethyl-1-dodeanamine” value ([2]; sample 19, pH 4.52, +0.2 ml 10% acetic acid) was 1881 ppm, the “ppm N-N-dimethyl-1-dodeanamine” value ([2]; sample 20, pH 4.43, +0.2 ml 10% acetic acid) was 1837 ppm and the “ppm N-N-dimethyl-1-dodeanamine” value ([2]; sample 21, pH 4.36, +0.3 ml 10% acetic acid) was 1885 ppm. The “ppm N-N-dimethyl-1-dodeanamine” value ([2]; sample start, pH 8.52, 0 ml 10% acetic acid) was ~67 ppm, the “pH at which complete ionization and solubilization in the water of the amine was observed” value ([2]; titration with 10 wt % acetic acid) was < 6.7 and the “ppm N-N-dimethyl-1-dodeanamine” value ([3]; sample 1, pH 8.13, +0.1 ml 10% HNO3) was 110 ppm. For the same compound, the “ppm N-N-dimethyl-1-dodeanamine” value ([3]; sample 2, pH 7.72, +0.1 ml 10% HNO3) was 211 ppm, the “ppm N-N-dimethyl-1-dodeanamine” value ([3]; sample 3, pH 7.42, +0.1 ml 10% HNO3) was 216 ppm and the “ppm N-N-dimethyl-1-dodeanamine” value ([3]; sample 4, pH 7.25, +0.1 ml 10% HNO3) was 235 ppm. For the same compound, the “ppm N-N-dimethyl-1-dodeanamine” value ([3]; sample 5, pH 7.2, +0.1 ml 10% HNO3) was 540 ppm, the “ppm N-N-dimethyl-1-dodeanamine” value ([3]; sample 6, pH 7.29, +0.1 ml 10% HNO3) was 745 ppm and the “ppm N-N-dimethyl-1-dodeanamine” value ([3]; sample 7, pH 7.33, +0.1 ml 10% HNO3) was 1153 ppm. The “ppm N-N-dimethyl-1-dodeanamine” value ([3]; sample 8, pH 7.29, +0.1 ml 10% HNO3) was 1210 ppm, the “ppm N-N-dimethyl-1-dodeanamine” value ([3]; sample 9, pH 7.18, +0.1 ml 10% HNO3) was 1327 ppm and the “ppm N-N-dimethyl-1-dodeanamine” value ([3]; sample 10, pH 7.11, +0.1 ml 10% HNO3) was 1315 ppm. For the same compound, the “ppm N-N-dimethyl-1-dodeanamine” value ([3]; sample 11, pH 6.99, +0.1 ml 10% HNO3) was 1413 ppm, the “ppm N-N-dimethyl-1-dodeanamine” value ([3]; sample 12, pH 6.85, +0.1 ml 10% HNO3) was 1667 ppm and the “ppm N-N-dimethyl-1-dodeanamine” value ([3]; sample 13, pH 6.73, +0.1 ml 10% HNO3) was 1897 ppm. For the same compound, the “ppm N-N-dimethyl-1-dodeanamine” value ([3]; sample 14, pH 6.64, +0.1 ml 10% HNO3) was 1853 ppm, the “ppm N-N-dimethyl-1-dodeanamine” value ([3]; sample 15, pH 6.59, +0.1 ml 10% HNO3) was 1858 ppm and the “ppm N-N-dimethyl-1-dodeanamine” value ([3]; sample 16, pH 6.28, +0.2 ml 10% HNO3) was 1788 ppm. The “ppm N-N-dimethyl-1-dodeanamine” value ([3]; sample 17, pH 5.8, +0.2 ml 10% HNO3) was 1822 ppm, the “ppm N-N-dimethyl-1-dodeanamine” value ([3]; sample 18, pH 3.46, +0.2 ml 10% HNO3) was 1975 ppm and the “ppm N-N-dimethyl-1-dodeanamine” value ([3]; sample start, pH 8.28, 0 ml 10% HNO3) was ~85 ppm. For the same compound, the “pH at which complete ionization and solubilization in the water of the amine was observed” value ([3]; titration with 10 wt % nitric acid) was < 6.7.
